# Results as given in patent US20260062412A1, “NITROGEN-CONTAINING HETEROCYCLIC COMPOUND HAVING MYT1 INHIBITORY ACTIVITY” (CHUGAI SEIYAKU KABUSHIKI KAISHA, priority 2023, published 2026).
# Where a name gives a salt, the structure may show the parent alone.
# Molecular target: MYT1 protein (Homo sapiens (Human), UniProt Q99640)
# Assay: Test for binding to ATP binding site of MYT1 (Kinase Tracer 178 / Eu-Anti-GST antibody TR-FRET)
# Details: ATP binding site of MYT1, 30 minutes at room temperature
# MYT1 protein, sequence (Q99640 whole entry): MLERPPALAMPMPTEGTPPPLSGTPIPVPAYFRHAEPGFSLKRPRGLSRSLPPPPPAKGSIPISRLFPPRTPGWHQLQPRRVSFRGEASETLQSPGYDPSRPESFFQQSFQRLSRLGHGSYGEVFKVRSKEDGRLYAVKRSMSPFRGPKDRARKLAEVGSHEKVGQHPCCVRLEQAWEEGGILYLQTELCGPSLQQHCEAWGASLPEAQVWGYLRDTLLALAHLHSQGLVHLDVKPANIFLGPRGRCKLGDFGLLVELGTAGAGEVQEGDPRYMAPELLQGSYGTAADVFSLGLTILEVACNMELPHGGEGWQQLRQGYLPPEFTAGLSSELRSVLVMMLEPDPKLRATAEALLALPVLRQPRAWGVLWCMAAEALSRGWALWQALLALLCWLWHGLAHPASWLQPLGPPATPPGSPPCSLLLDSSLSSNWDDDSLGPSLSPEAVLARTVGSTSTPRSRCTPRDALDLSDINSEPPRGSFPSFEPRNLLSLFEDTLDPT
row,IC50,Structure (SMILES)
1,270 nM,"CCCc1cc(Cl)cc2c(-c3ccc(Cl)c4[nH]ncc34)c(N)c(=O)[nH]c12 [Compound A22, 3-Amino-6-chloro-4-(7-chloro-1H-indazol-4-yl)-8-propyl-1H-quinolin-2-one]"
2,18 nM,"Cc1cc2c(-c3ccc(F)c4[nH]ncc34)c(N)c(=O)[nH]c2c2cc(B(O)O)cnc12 [Compound C189, [3-Amino-4-(7-fluoro-1H-indazol-4-yl)-6-methyl-2-oxo-1H-1,7-phenanthrolin-9-yl]boronic acid]"
3,1100 nM,"Cn1ncc2c(-c3c(N)c(=O)[nH]c4c3cc(Br)c3ncccc34)ccc(F)c21 [Compound C2, 3-Amino-6-bromo-4-(7-fluoro-1-methylindazol-4-yl)-1H-1,7-phenanthrolin-2-one]"
4,1.9 nM,"Nc1c(-c2cc(F)c(Cl)c3[nH]ncc23)c2cc(Br)c3ncccc3c2[nH]c1=O [Compound C75, 3-Amino-6-bromo-4-(7-chloro-6-fluoro-1H-indazol-4-yl)-1H-1,7-phenanthrolin-2-one]"
5,3.5 nM,"Nc1c(-c2ccc(F)c3[nH]ncc23)c2cc(N3CCC(N4CCOCC4)CC3)c3ncccc3c2[nH]c1=O [Compound C117, 3-Amino-4-(7-fluoro-1H-indazol-4-yl)-6-(4-morpholin-4-ylpiperidin-1-yl)-1H-1,7-one]"
6,11 nM,"Nc1c(-c2ccc(F)c3[nH]ncc23)c2cc(C3CNC3)c3ncccc3c2[nH]c1=O [Compound C132, 3-Amino-6-(azetidin-3-yl)-4-(7-fluoro-1H-indazol-4-yl)-1H-1,7-phenanthrolin-2-one; formate]"
7,6.2 nM,"Nc1c(-c2ccc(F)c3[nH]ncc23)c2cc(Br)c3cnsc3c2[nH]c1=O [Compound H1, 7-Amino-4-bromo-6-(7-fluoro-1H-indazol-4-yl)-9H-[1,2]thiazolo[4,5-h]quinolin-8-one]"
8,2.5 nM,"Nc1c(-c2ccc(F)c3[nH]ncc23)c2cc(OC3CC(C(F)(F)F)C3)c3ncccc3c2[nH]c1=O (stereo not drawn) [Compound C57, 3-Amino-4-(7-fluoro-1H-indazol-4-yl)-6-[3-(trifluoromethyl)cyclobutyl]oxy-1H-1,7-one]"
9,0.95 nM,"N#C[C@H]1C[C@H](Oc2cc3c(-c4ccc(F)c5[nH]ncc45)c(N)c(=O)[nH]c3c3nccnc23)C1 [Compound G12, (1r,3r)-3-[[8-Amino-7-(7-fluoro-1H-indazol-4-yl)-9-oxo-10H-pyrido[2,3-f]quinoxalin-5-yl]oxy]cyclobutane-1-carbonitrile]"
10,2.1 nM,"Cc1c(F)c2c(-c3cc(F)c(F)c4[nH]ncc34)c(N)c(=O)[nH]c2c2cccnc12 [Compound C219, 3-Amino-4-(6,7-difluoro-1H-indazol-4-yl)-5-fluoro-6-methyl-1H-1,7-phenanthrolin-2-one]"
11,8.6 nM,"Nc1c(-c2ccc(F)c3[nH]ncc23)c2cc(C3CC(F)(F)C3)c3ncccc3c2[nH]c1=O [Compound C164, 3-Amino-6-(3,3-difluorocyclobutyl)-4-(7-fluoro-1H-indazol-4-yl)-1H-1,7-phenanthrolin-2-one]"
12,33 nM,"Nc1c(-c2ccc(Cl)c3[nH]ncc23)c2cc(Cl)c3ccccc3c2[nH]c1=O [Compound B45, 3-Amino-6-chloro-4-(7-chloro-1H-indazol-4-yl)-1H-benzo[h]quinolin-2-one]"
13,6.1 nM,"CCOc1cc2c(-c3ccc(F)c4[nH]ncc34)c(N)c(=O)[nH]c2c2ccc(OC)nc12 [Compound T3, 3-Amino-6-ethoxy-4-(7-fluoro-1H-indazol-4-yl)-8-methoxy-1H-1,7-phenanthrolin-2-one]"
14,15 nM,"Nc1c(-c2ccc(F)c3[nH]ncc23)c2cc(N3CCC(N4CCOCC4)CC3)c3cccnc3c2[nH]c1=O [Compound D7, 3-Amino-4-(7-fluoro-1H-indazol-4-yl)-6-(4-morpholin-4-ylpiperidin-1-yl)-1H-1,10-phenanthrolin-2-one]"
15,2600 nM,"Cn1c(=O)c(N)c(-c2ccc(F)c3[nH]ncc23)c2cc(Br)c3ccccc3c21 [Compound B33, 3-Amino-6-bromo-4-(7-fluoro-1H-indazol-4-yl)-1-methylbenzo[h]quinolin-2-one]"
